# Measured values as given in US12173018B2, “Penicillin-binding protein inhibitors” (priority 2018, dated 2024).
# Where two headings read alike, the source gives them in different places.
# Tests used:
# [1] = target: E. coli PBP3 (Escherichia coli (strain K12), UniProt P0AD68); test: E. coli PBP3 Bocillin-FL fluorescence polarization competition binding assay
# How it was run: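 Purified PBP (1.5 μM final) was combined with test compound (0–1000 μM) and Bocillin-FL (fluorescent penicillin V, 0.1 μM final) in 50 mM Hepes pH 8.0, 300 mM NaCl, 5% glycerol.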
# [2] = target: E. coli PBP1a (Escherichia coli (strain K12), UniProt P02918); test: Radioligand competition binding assay with 14C-labeled boronic acid probe, PBP1a
# Description: To determine the ability of boronic acid-based test PBP inhibitors to bind Penicillin Binding Proteins (PBPs), a radio-labelled boronic acid PBP inhibitor
# [drawing 751] was used in competition binding assays to determine boronic acid PBP inhibitor binding to PBP1a or PBP1b from Escherichia coli. PBP1a and PBP1b were purified as described previously (Bertsche, U.; et al., J. Biol. Chem. 2005, 280 (45), 38096-38101; Born, P.; et al., J. Biol. Chem. 2006. 281 (37), 26985-26993). To establish assay conditions for competition binding, an enzyme titration/saturation binding experiment was performed. Saturation binding was performed in a buffer comprised of 20 mM Tris (pH 7.5), 500 mM NaCl and 0.1% (v/v) TritonX-100, with PBP1a/PBP1b at a final concentration of 0.1 μM and Compound A at final concentrations ranging from 0-100 μM. Mixtures were incubated for 60 minutes, then applied to Zeba Spin Desalting columns or plates (ThermoFisher Scientific) and centrifuged at 1000-1500×g for 2 minutes. The flow through, containing PBP bound with Compound A, was recovered and 100 μL mixed with 5 mL of UltimaGold liquid scintillation cocktail (Perkin Elmer), and the radioactivity counted using a Beckman Coulter LS 6500 Multipurpose scintillation counter. PBP binding of Compound A approached saturation at 20 μM of ^14C-labeled probe. The competition binding assay was validated using the beta-lactam ampicillin, with Compound A at a final concentration of 20 μM, PBP1a/PBP1b at a final concentration of 0.1 μM. PBP1a/PBP1b was incubated with ampicillin in a 96-well microplate for 60 minutes, then Compound A was added and the mixtures incubated for an additional 60 minutes. The mixtures were then applied to Zeba Spin desalting plates and centrifuged at 1000×g for 2 minutes. The flow through was recovered and 100 μl mixed with 5 ml of UltimaGold liquid scintillation cocktail and the radioactivity counted. […] Binding assays with boronic acid PBP inhibitors were performed in an identical fashion. The potency of boronic acid PBP inhibitors was reported as the EC50 value.
# [3] = system: engineered strain of Escherichia coli harboring CTX-M15; test: microbe, parasite or virus in culture; assay type: cell-based; conditions: Escherichia coli, read-out: Microbiological Activity (MIC in mg/L), E. coli DH5α/pLBII-CTX-M15, engineered strain producing CTX-M15
# [4] = target: E. coli PBP2 (Escherichia coli (strain K12), UniProt P0AD65); test: E. coli PBP2 Bocillin-FL fluorescence polarization competition binding assay; conditions: fluorescence polarization competition binding with Bocillin-FL; read-out: E. coli K12 PBP2 Potency (EC50)
# Description: To determine the ability of boronic acid-based test PBP inhibitors to bind Penicillin Binding Proteins (PBPs), Bocillin-FL (fluorescently-labeled penicillin V; ThermoFisher Scientific) was used in a fluorescence polarization (FP) competition binding assay to assess inhibitor binding to PBP2, PBP3 or PBP4 from Escherichia coli. PBPs were cloned and purified as described previously (King, D. T, et al., ACS Infectious Diseases 2015, 1, 175-184). To establish assay conditions for competition binding, an enzyme titration/saturation binding experiment was initially performed. Bocillin-FL was prepared at 0.2 μM in a buffer comprised of 50 mM Hepes (pH 8.0), 300 mM NaCl and 5% (v/v) glycerol. Saturation binding was performed by mixing 40 μl of PBP solutions ranging in concentrations from 0-12 μM with 40 μl of the 0.2 μM Bocillin-FL solution, in individual wells of a black 384-well microplate. FP was measured immediately upon mixing (Excitation, 490 nm; Emission, 520 nm; g-factor, 0.96), using a Cytation3 (BioTek) microplate reader and measured continuously for up to 120 minutes. […] For all PBPs the FP signal approached saturation with 1.5 μM PBP (final concentration). […] Assays (80 μl final volume) were performed with PBPs at a final concentration of 1.5 μM, Bocillin-FL at 0.1 μM and beta-lactam concentrations that ranged from 0-1000 μM. […] Bocillin-FL was added and the FP immediately measured for 60 minutes (90 minutes for PBP2). The beta-lactam potency was reported as the concentration of beta-lactam required to reduce binding of Bocillin-FL by […] (EC50). […] Binding assays for boronic acid PBP inhibitors were performed in an identical fashion.
# [5] = system: N. gonorrhoeae FA19; test: Liquid broth MIC, N. gonorrhoeae FA19; assay type: cell-based; conditions: Neisseria gonorrhoeae; N. gonorrhoeae FA19, liquid broth; read-out: Minimum Inhibitory Concentration, N. gonorrhoeae FA19
# How it was run: (§1)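 Visual MIC: lowest concentration well showing no bacterial growth after 40-42 h at 36° C in 5% CO2. Inoculum 5×10^5 CFU/mL from colonies swabbed into GC broth, set by OD600; compounds in 2-fold serial dilution.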
# [6] = system: N. gonorrhoeae WHO F; test: Liquid broth MIC, N. gonorrhoeae WHO F; assay type: cell-based; conditions: Neisseria gonorrhoeae; N. gonorrhoeae WHO F, liquid broth; read-out: Minimum Inhibitory Concentration, N. gonorrhoeae WHO F
# How it was run: as §1
# [7] = system: N. gonorrhoeae FA1090; test: Liquid broth MIC, N. gonorrhoeae FA1090; assay type: cell-based; conditions: Neisseria gonorrhoeae; N. gonorrhoeae FA1090, liquid broth; read-out: Minimum Inhibitory Concentration, N. gonorrhoeae FA1090
# How it was run: as §1
# [8] = system: N. gonorrhoeae ATCC 49226; test: Liquid broth MIC, N. gonorrhoeae ATCC 49226; assay type: cell-based; conditions: Neisseria gonorrhoeae, ATCC49226; N. gonorrhoeae ATCC 49226, liquid broth; read-out: Minimum Inhibitory Concentration, N. gonorrhoeae ATCC 49226
# How it was run: as §1
# [9] = target: E. coli PBP1b (Escherichia coli (strain K12), UniProt P02919); test: Radioligand competition binding assay with 14C-labeled boronic acid probe, PBP1b
# [10] = system: P. aeruginosa PAO1; test: Broth microdilution MIC, P. aeruginosa PAO1; assay type: cell-based; conditions: Pseudomonas aeruginosa; P. aeruginosa PAO1, broth microdilution; read-out: MIC P. aeruginosa PAO1
# How it was run: (§2)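 MIC = lowest concentration showing no visible growth after 16-20 h at 37° C. Cation-adjusted MH broth, 2-fold serial dilutions, starting inoculum 5×10^5 CFU/mL, per CLSI methods.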
# [11] = system: P. aeruginosa (ΔmexAB-oprM); test: microbe, parasite or virus in culture; assay type: cell-based; conditions: Pseudomonas aeruginosa, read-out: MIC P. aeruginosa ΔmexAB-OprM
# How it was run: as §2
# [12] = system: P. aeruginosa ATCC 35151; test: microbe, parasite or virus in culture; assay type: cell-based; conditions: Pseudomonas aeruginosa, ATCC35151; hyper-permeable P. aeruginosa ATCC 35151; read-out: MIC P. aeruginosa ATCC 35151
# How it was run: as §2
# [13] = system: A. baumannii ATCC 19606; test: Broth microdilution MIC, A. baumannii ATCC 19606; assay type: cell-based; conditions: Acinetobacter baumannii, ATCC19606; A. baumannii ATCC 19606, broth microdilution; read-out: MIC A. baumannii ATCC 19606
# How it was run: as §2
# [14] = system: E. coli AG100; test: Broth microdilution MIC, E. coli AG100 (wild-type parent); assay type: cell-based; conditions: Escherichia coli; wild-type parent E. coli AG100, broth microdilution; read-out: MIC E. coli AG100
# How it was run: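 Broth microdilution in cation-supplemented Mueller-Hinton broth, 2-fold serial compound dilutions, inoculum 5×10^5 CFU/mL from 3-5 h log culture.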
# [15] = system: E. coli ATCC 25922; test: Broth microdilution MIC, E. coli ATCC 25922; assay type: cell-based; conditions: Escherichia coli, ATCC25922; E. coli ATCC 25922, broth microdilution; read-out: MIC E. coli 25922
# How it was run: as §2
# [16] = system: K. pneumoniae 848844; test: microbe, parasite or virus in culture; assay type: cell-based, Klebsiella pneumoniae; conditions: Klebsiella pneumoniae; K. pneumoniae 848844 producing SHV-11 and KPC-2; read-out: MIC K. pneumoniae 848844
# How it was run: as §2
# [17] = system: K. pneumoniae UMM; test: microbe, parasite or virus in culture; assay type: cell-based; conditions: Klebsiella pneumoniae; K. pneumoniae UMM producing SHV-5 and KPC-2; read-out: MIC K. pneumoniae UMM
# How it was run: as §2
# [18] = system: E. coli 901C; test: microbe, parasite or virus in culture; assay type: cell-based; conditions: Escherichia coli; hyper-permeable E. coli 901C, broth microdilution; read-out: MIC E. coli 901C
# How it was run: as §2
# [19] = system: E. coli AG100A; test: microbe, parasite or virus in culture; assay type: cell-based; conditions: Escherichia coli, read-out: MIC E. coli AG100A
# How it was run: as §2
# [20] = system: K. pneumoniae SI-117; test: microbe, parasite or virus in culture; assay type: cell-based; conditions: Klebsiella pneumoniae, SI117, read-out: MIC K. pneumoniae SI-117
# How it was run: as §2
# [21] = system: E. coli D22; test: microbe, parasite or virus in culture; assay type: cell-based; conditions: Escherichia coli; hyper-permeable E. coli D22, broth microdilution; read-out: MIC E. coli D22
# How it was run: as §2
# E. coli PBP2, sequence (P0AD65 whole entry): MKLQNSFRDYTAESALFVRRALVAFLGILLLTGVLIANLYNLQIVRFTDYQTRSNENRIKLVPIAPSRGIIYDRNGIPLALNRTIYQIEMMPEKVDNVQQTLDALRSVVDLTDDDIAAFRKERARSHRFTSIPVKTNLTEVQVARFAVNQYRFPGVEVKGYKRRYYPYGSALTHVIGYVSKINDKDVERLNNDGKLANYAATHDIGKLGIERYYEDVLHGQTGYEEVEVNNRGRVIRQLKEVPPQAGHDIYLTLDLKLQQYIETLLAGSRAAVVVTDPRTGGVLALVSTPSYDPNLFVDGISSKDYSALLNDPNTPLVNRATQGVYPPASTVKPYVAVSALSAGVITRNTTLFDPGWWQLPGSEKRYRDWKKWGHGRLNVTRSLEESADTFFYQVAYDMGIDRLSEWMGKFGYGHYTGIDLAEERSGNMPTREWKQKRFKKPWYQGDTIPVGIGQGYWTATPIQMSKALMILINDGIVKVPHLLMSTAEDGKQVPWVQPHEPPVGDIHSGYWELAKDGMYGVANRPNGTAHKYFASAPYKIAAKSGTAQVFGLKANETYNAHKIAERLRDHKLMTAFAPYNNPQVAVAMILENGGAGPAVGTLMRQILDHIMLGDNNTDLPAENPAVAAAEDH
# E. coli PBP3, sequence (P0AD68 whole entry): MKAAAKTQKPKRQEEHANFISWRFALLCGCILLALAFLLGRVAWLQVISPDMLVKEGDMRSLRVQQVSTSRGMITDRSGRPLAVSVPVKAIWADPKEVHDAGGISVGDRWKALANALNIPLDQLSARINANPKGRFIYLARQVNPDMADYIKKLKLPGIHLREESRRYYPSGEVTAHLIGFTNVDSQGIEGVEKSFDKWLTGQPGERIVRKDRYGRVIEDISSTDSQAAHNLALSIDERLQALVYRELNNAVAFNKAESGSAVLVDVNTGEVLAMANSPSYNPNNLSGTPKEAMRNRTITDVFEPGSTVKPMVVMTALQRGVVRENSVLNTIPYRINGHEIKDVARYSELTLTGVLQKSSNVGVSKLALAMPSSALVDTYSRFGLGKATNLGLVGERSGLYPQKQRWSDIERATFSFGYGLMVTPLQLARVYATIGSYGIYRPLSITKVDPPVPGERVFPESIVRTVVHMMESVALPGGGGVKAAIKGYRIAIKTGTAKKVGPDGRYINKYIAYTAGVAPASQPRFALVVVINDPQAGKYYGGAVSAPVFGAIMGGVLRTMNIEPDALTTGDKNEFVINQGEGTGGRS
# E. coli PBP1a, sequence (P02918 whole entry): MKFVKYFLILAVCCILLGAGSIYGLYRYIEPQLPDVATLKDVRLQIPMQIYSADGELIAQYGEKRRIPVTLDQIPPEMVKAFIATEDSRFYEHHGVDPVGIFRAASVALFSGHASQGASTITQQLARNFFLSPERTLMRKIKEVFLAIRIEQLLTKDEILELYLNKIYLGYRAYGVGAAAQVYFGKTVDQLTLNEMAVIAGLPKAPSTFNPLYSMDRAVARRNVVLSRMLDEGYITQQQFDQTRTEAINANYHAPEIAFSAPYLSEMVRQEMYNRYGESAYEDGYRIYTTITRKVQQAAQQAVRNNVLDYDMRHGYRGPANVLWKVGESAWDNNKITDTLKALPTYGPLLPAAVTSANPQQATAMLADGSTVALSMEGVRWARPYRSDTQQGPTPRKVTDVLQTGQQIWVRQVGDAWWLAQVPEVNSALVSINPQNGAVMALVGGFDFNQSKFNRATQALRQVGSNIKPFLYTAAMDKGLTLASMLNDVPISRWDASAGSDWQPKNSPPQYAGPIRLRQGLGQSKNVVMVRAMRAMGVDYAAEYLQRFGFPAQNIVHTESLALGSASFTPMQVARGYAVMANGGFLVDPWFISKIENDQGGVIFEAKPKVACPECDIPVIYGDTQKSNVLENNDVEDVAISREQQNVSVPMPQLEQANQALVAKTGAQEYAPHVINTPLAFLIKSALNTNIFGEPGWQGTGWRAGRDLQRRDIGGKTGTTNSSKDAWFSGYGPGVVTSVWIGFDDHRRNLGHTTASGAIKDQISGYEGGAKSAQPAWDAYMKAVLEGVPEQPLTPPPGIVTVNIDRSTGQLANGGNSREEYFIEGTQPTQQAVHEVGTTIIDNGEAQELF
# E. coli PBP1b, sequence (P02919 whole entry): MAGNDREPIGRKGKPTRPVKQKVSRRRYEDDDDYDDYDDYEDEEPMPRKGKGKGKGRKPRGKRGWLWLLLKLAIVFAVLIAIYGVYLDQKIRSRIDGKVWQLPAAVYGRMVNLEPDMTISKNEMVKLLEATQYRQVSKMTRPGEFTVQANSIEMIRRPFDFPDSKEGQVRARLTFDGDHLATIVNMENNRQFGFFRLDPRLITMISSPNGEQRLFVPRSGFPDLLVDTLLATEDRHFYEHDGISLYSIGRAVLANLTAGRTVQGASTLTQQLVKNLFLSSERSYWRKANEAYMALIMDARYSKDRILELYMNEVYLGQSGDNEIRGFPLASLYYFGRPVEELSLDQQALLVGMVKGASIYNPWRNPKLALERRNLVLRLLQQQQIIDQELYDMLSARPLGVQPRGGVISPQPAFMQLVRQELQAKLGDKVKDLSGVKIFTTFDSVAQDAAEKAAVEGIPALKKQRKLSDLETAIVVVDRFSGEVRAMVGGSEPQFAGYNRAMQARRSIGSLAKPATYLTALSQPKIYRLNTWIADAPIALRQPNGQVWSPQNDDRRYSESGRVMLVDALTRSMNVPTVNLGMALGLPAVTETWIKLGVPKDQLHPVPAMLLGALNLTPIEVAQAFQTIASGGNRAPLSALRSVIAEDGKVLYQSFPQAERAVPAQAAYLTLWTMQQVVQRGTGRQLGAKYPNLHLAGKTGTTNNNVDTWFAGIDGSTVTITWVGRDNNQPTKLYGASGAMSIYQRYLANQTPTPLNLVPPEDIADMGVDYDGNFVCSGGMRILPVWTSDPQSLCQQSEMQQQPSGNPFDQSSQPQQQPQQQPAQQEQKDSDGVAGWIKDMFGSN
compound,measurement,setting,value
"CCN1CCN(C(=O)NC(C(=O)N[C@H]2Cc3cccc(C(=O)O)c3OB2O)C(O)c2ccc(O)c(O)c2)C(=O)C1=O (stereo partly drawn) [Example 46, (3R)-3-(3-(3,4-dihydroxyphenyl)-2-(4-ethyl-2,3-dioxopiperazine-1-carboxamido)-3-hydroxypropanamido)-2-hydroxy-3,4-dihydro-2H-benzo[e][1,2]oxaborinine-8-carboxylic acid]",EC50,[1],30 to 500 µM
same,EC50,[2],< 10 µM
"CCN1CCN(C(=O)NC(C(=O)N[C@H]2Cc3cccc(C(=O)O)c3OB2O)c2ccc(OCCF)cc2)C(=O)C1=O (stereo partly drawn) [Example 76, (3R)-3-(2-(4-ethyl-2,3-dioxopiperazine-1-carboxamido)-2-(4-(2-fluoroethoxy)phenyl)acetamido)-2-hydroxy-3,4-dihydro-2H-benzo[e][1,2]oxaborinine-8-carboxylic acid]",EC50,[1],30 to 500 µM
same,MIC,[3],128 to 256 mg/L
same,EC50,[2],< 10 µM
"CCN1CCN(C(=O)NC(C(=O)N[C@H]2Cc3cccc(C(=O)O)c3OB2O)c2ccc(OC)cn2)C(=O)C1=O (stereo partly drawn) [Example 81, (3R)-3-(2-(4-ethyl-2,3-dioxopiperazine-1-carboxamido)-2-(5-methoxypyridin-2-yl)acetamido)-2-hydroxy-3,4-dihydro-2H-benzo[e][1,2]oxaborinine-8-carboxylic acid]",EC50,[1],30 to 500 µM
same,MIC,[3],128 to 256 mg/L
same,EC50,[4],30 to 500 µM
"CCCN1CCN(C(=O)NC(C(=O)N[C@H]2Cc3cccc(C(=O)O)c3OB2O)c2cnc(N)s2)C(=O)C1=O (stereo partly drawn) [Example 101, (3R)-3-(2-(2-aminothiazol-5-yl)-2-(2,3-dioxo-4-propylpiperazine-1-carboxamido)acetamido)-2-hydroxy-3,4-dihydro-2H-benzo[e][1,2]oxaborinine-8-carboxylic acid]",MIC,[5],1 to 2 µg/mL
same,EC50,[1],30 to 500 µM
same,MIC,[6],< 0.125 µg/mL
same,MIC,[3],32 to 64 mg/L
same,MIC,[7],< 0.125 µg/mL
same,EC50,[4],> 500 µM
same,MIC,[8],1 to 2 µg/mL
"CCN1CCN(C(=O)NC(C(=O)N[C@H]2Cc3cccc(C(=O)O)c3OB2O)c2ccc(F)cn2)C(=O)C1=O (stereo partly drawn) [Example 114, (3R)-3-(2-(4-ethyl-2,3-dioxopiperazine-1-carboxamido)-2-(5-fluoropyridin-2-yl)acetamido)-2-hydroxy-3,4-dihydro-2H-benzo[e][1,2]oxaborinine-8-carboxylic acid]",EC50,[9],> 100 µM
same,EC50,[1],30 to 500 µM
same,MIC,[3],128 to 256 mg/L
same,EC50,[4],> 500 µM
"CCN1CCN(C(=O)N[C@@H](C(=O)N[C@H]2Cc3ccc(F)c(C(=O)O)c3OB2O)c2ccsc2)C(=O)C1=O [Example 138, (R)-3-((R)-2-(4-ethyl-2,3-dioxopiperazine-1-carboxamido)-2-(thiophen-3-yl)acetamido)-7-fluoro-2-hydroxy-3,4-dihydro-2H-benzo[e][1,2]oxaborinine-8-carboxylic acid]",EC50,[1],< 30 µM
same,MIC,[10],> 128 µg/mL
same,MIC,[11],32 to 64 µg/mL
same,MIC,[12],0.5 to 1 µg/mL
same,MIC,[13],> 128 µg/mL
same,EC50,[4],> 500 µM
"CCN1CCN(C(=O)NC(C(=O)N[C@H]2Cc3ccc(F)c(C(=O)O)c3OB2O)c2cccs2)C(=O)C1=O (stereo partly drawn) [Example 142, (3R)-3-(2-(4-ethyl-2,3-dioxopiperazine-1-carboxamido)-2-(thiophen-2-yl)acetamido)-7-fluoro-2-hydroxy-3,4-dihydro-2H-benzo[e][1,2]oxaborinine-8-carboxylic acid]",MIC,[5],1 to 2 µg/mL
same,EC50,[1],30 to 500 µM
same,MIC,[6],< 0.125 µg/mL
same,MIC,[7],< 0.125 µg/mL
same,EC50,[4],> 500 µM
same,MIC,[8],0.25 to 0.5 µg/mL
"CCN1CCN(C(=O)N[C@@H](C(=O)N[C@H]2Cc3cccc(C(=O)O)c3OB2O)c2ccc(O)c(F)c2)C(=O)C1=O [Example 156, (R)-3-((R)-2-(4-ethyl-2,3-dioxopiperazine-1-carboxamido)-2-(3-fluoro-4-hydroxyphenyl)acetamido)-2-hydroxy-3,4-dihydro-2H-benzo[e][1,2]oxaborinine-8-carboxylic acid]",MIC,[14],32 to 64 µg/mL
same,MIC,[15],32 to 64 µg/mL
same,EC50,"[1]; fluorescence polarization competition binding with Bocillin-FL, read-out: E. coli K12 PBP3 Potency",< 30 µM
same,MIC,[16],32 to 64 µg/mL
same,MIC,[17],32 to 64 µg/mL
same,MIC,[18],< 0.25 µg/mL
same,MIC,[19],2 to 4 µg/mL
same,MIC,[20],32 to 64 µg/mL
same,MIC,[21],2 to 4 µg/mL
same,EC50,[4],> 500 µM
